According to article PMC8510480, “Searching Anti-Zika Virus Activity in 1H-1,2,3-Triazole Based Compounds” (Molecules, 2021):
Values joined by “and” are separate entries in the source; they are usually repeats but may differ in a detail not shown here. Identical values can stand only once. Like-named read-outs stand apart in the source and are kept apart here.

How the values were obtained:
[1] = test system: macrophages (peritoneal and J774A.1) and fibroblast cells; design: method as in PMID 33339081; conditions: ref [28]; cited from earlier work
Vero cells [2] = assay: Cytotoxicity test with MTT method in Vero cells; type: cell-based, African green monkey; conditions: for CC20 (20% cytotoxic concentration): 5 days
Procedure: (§1) The cytotoxicity of compounds 1–7 to Vero cells, an epithelial cell line derived from the kidney of an African green monkey, was tested using the 3-(4,5-dimethylthiazol-2-yl)-2,5-diphenyltetrazolium bromide (MTT) method. […] Based on CC20 values, which was the maximum concentration used for antiviral screening, 3b compound was the least toxic with a value of 527.2 µM. Compounds 2a and 2b were the most cytotoxic with values of 8.87 µM and 9.89 µM, respectively. […] The results from compounds 3a, 3b and 4a, 4b ranged from 40.69 to 527.20 µM. […] The presence of phthalimide group or sugar increases the values of CC20 and CC50 (Table 2 and Supplementary Material: Figure S1).
(§2) 96-well plates with 1 × 10^4 cell/well were used in this assay and prepared 24 h previously. The compounds were diluted in a 2:1 ratio so that a maximum of 0.8% DMSO was used. The concentrations used were 800, 400, 200, 100, 50, 25 and 12.5 µM. Dilutions were added to the wells in triplicate and incubated at 37 °C and 5% CO2 atmosphere. After 5 days, the wells were emptied and a 50 µL of 1 mg/mL MTT (3-(4,5-dimethylthiazol-2-yl)-2,5-diphenyltetrazolium bromide) (Sigma-Aldrich) solution was added, and the cells were incubated for 3–4 h for formation of formazan crystals through the mitochondria of viable cells. Then, medium was removed and 100 µL DMSO was added to the wells to solubilize the formazan crystals. With the aid of an incubator Tecnal TE-420 (Tecnal Equipamentos Científicos, Piracicaba, São Paulo, Brazil), the plates were homogenized at 120 RPM at 37 °C and the optical densities were read at 570 nm on a spectrophotometer BioTekTM ELx800TM (BioTek Instruments, Winooski, VT, USA).
(§3) The determination of the CC20 and CC50 values was obtained through the linear regression analysis of the XY graph generated by the values of the concentrations used in the test and the triplicate values of the viability. In the post-infection and pre-treatment tests, ANOVA and Dunnett tests were used, considering […] as the minimum significance value. All tests were performed in GraphPad Prism v.6.0 program (GraphPad Software, Inc., San Diego, CA, USA).

[3] = Cytotoxicity test with MTT method in Vero cells; type: cell-based, African green monkey; conditions: African green monkey, 5 days, read-out: CC50 (50% cytotoxic concentration)
Procedure: as §1, §2, §3

ZIKV = assay: Post-infection test with ZIKV in Vero cells; type: cell-based, Zika virus
Procedure: We then investigated the activity of compound 4b after ZIKV infection in cells. As already noted in the screening test, 4b reduced ZIKV growth to levels similar to 6MMPr, a positive control previously described by our group. As in the pre-treatment test, four different concentrations were used, with the maximum being CC20 (136.90, 68.45, 34.22 and 17.11 µM). […] It is worth highlighting the constant decrease in the viral titer, even in lower concentrations, while the positive control 6MMPr reduces it only in the highest concentrations.
Statistical analysis compared the concentrations of each compound at each collection time (3 d.p.i. and 5 d.p.i.) with a t-test.
Figure 6 Comparison of anti-ZIKV activity between 6MMPr and 4b after three- and five-days post-infection (d.p.i.). 6MMPr and compound 4b were submitted to a post-infection test when Vero cells was infected with ZIKV at MOI 0.1 for 2 h then treated with compounds. Concentrations used in the test corresponded to CC20 (4b = 136.90 µM; 6MMPr = 60.50 µM), CC20/2 (4b = 68.45 µM; 6MMPr = 30.25 µM), CC20/4 (4b = 34.22 µM; 6MMPr = 15.13 µM) and CC20/8 (4b = 17.11 µM; 6MMPr = 7.56 µM). The experiment was done in triplicates and values are the mean and the SD. Statistical analysis was made between compounds using t-test on GraphPad Prism program. * = significative; ns = not statistically significant for p < 0.05. (a) 3 d.p.i. from both compounds. (b) 5 d.p.i. from both compounds.
96-well plates with 1 × 10^4 cell/well were used in this assay and prepared 24 h previously. Seven serial dilutions of the virus were prepared in DMEM + 2% FBS culture medium. After removing the culture medium from the plate, 50 µL of each dilution was added to the wells in several repetitions. The plate was incubated at 37 °C and 5% atm CO2 for 1 h. After this interval, each well of the plate received an additional 100 µL of DMEM + 2% FBS culture medium. The plate was incubated again, in the same parameters, for 5 days. Some columns of the plate were selected for use as a cell control (culture medium only, no virus). The reading was performed in an inverted optical microscope AE2000, Motic (Motic, Kowloon Bay, Hong Kong) counting positives wells by the presence of cytopathic effect and the determination of the sample title was performed with the aid of the Microsoft Office Excel program (Microsoft® Office, Redmond, WA, USA).
48-well plates with 2.5 × 10^4 cells/well were prepared 24 h previously. A ZIKV solution at MOI 0.1 was inoculated into the wells and the cells incubated at 37 °C and 5% CO2 atmosphere. After 2 h, the culture medium was removed, and the wells were washed with 1X PBS. 2:1 dilution of 4b (136.90 µM, 68.45 µM, 34.22 µM and 17.11 µM) and 6MMPr (60.50 µM, 30.25 µM, 15.13 µM and 7.56 µM) were added in triplicate. The cells were again incubated for 72 h and 120 h. The supernatants from the wells were collected and titrated.

Vero cells [4] = test system: Vero cells; design: method as in PMID 28803932; conditions: ref [17], cited from earlier work

Row | SMILES | CC20 (20% cytotoxic concentration) (Vero cells [2]) | CC50 at 5 days [3] | other results
1 | O=C1c2ccccc2C(=O)N1CCn1cc(-c2ccccc2)nn1 [4-phenyl-1-[2-(phthalimido-2-yl)ethyl]-1-H-1,2,3-triazole] |  |  | cytotoxicity [1]: low cytotoxicity
2 | CC(C)(O)c1cn(CN2C(=O)c3ccccc3C2=O)nn1 [Compound 1] | 177.10 µM | 680 µM | 
3 | O=C1C=C(n2cc(CCO)nn2)C(=O)c2ccccc21 [Compound 2a] | 8.87 µM | 38 µM | 
4 | O=C1C=C(n2cc(CCCO)nn2)C(=O)c2ccccc21 [Compound 2b] | 9.89 µM | 38.8 µM | 
5 | O=C1C=C(NCc2cn(CN3C(=O)c4ccccc4C3=O)nn2)C(=O)c2ccccc21 [Compound 3a] | 55.28 µM | 470 µM | 
6 | O=C1C=C(NCc2cn(CCN3C(=O)c4ccccc4C3=O)nn2)C(=O)c2ccccc21 [Compound 3b] | 527.2 µM and 527.20 µM | 1190 µM | 
7 | O=C1C(Br)=C(NCc2cn(CCCN3C(=O)c4ccccc4C3=O)nn2)C(=O)c2ccccc21 [Compound 4a] | 40.69 µM | 68.8 µM | 
8 | O=C1C=C(NCCn2cc(CCCO)nn2)C(=O)c2ccccc21 [Compound 5a, 2-[2-(4-(3-Hydroxypropyl)-1H-1,2,3-triazol-1-yl)]-ethylamino-1,4-naphthoquinone] | 74.85 µM | 294 µM | melting point: 143 to 145 °C; concentration until which cells remain viable (Vero cells [2]): ≤ 400 µM
9 | CC(C)(O)c1cn(CCNC2=CC(=O)c3ccccc3C2=O)nn1 [Compound 5b] | 66.93 µM | 298 µM | concentration until which cells remain viable (Vero cells [2]): ≤ 400 µM
10 | CSc1ncnc2c1ncn2[C@@H]1O[C@H](CO)[C@@H](O)[C@H]1O [Compound 6MMPr, 6-methylmercaptopurine riboside, reference compound] |  |  | % Viral Inhibition (ZIKV; 3 d.p.i., CC20 (4b 136.90 µM; 6MMPr 60.50 µM)): 99.8%; % Viral Inhibition (ZIKV; 3 d.p.i., CC20/2 (4b 68.45 µM; 6MMPr 30.25 µM)): 54.4%; % Viral Inhibition (ZIKV; 3 d.p.i., CC20/4 (4b 34.23 µM; 6MMPr 15.13 µM)): 42.7%; % Viral Inhibition (ZIKV; 3 d.p.i., CC20/8 (4b 17.11 µM; 6MMPr 7.6 µM), negative = increased virus titer compared to control): −93.4 * %; % Viral Inhibition (ZIKV; 5 d.p.i., CC20 (4b 136.90 µM; 6MMPr 60.50 µM)): 99.7%; % Viral Inhibition (ZIKV; 5 d.p.i., CC20/2 (4b 68.45 µM; 6MMPr 30.25 µM)): 96.8%; % Viral Inhibition (ZIKV; 5 d.p.i., CC20/4 (4b 34.23 µM; 6MMPr 15.13 µM)): 95.1%; % Viral Inhibition (ZIKV; 5 d.p.i., CC20/8 (4b 17.11 µM; 6MMPr 7.6 µM)): 81.1%; % Viral Inhibition (ZIKV; post-infection test, Table 4, concentration and time not stated): 97.8%; IC50 (ZIKV; post-infection test, ZIKV MOI 0.1, Vero cells, read-out: IC50 (50% inhibition concentration, virus replication)): 24.5 µM; effect on growth of the virus (viral titer) (ZIKV; post-infection, four concentrations from CC20 to CC20/8, 3 and 5 d.p.i.): prevents the growth of the virus in both cases; SI (selectivity index) (ZIKV; ratio between the CC50 and IC50 values): 11.9; CC50 (Vero cells [4]; read-out: CC50 (50% cytotoxic concentration)): 291 µM; CC20 (20% cytotoxic concentration) (Vero cells [4]): 60.50 µM and 60.5 µM
11 | CC(=O)OC[C@H]1O[C@H](OCCc2cn(C3=CC(=O)c4ccccc4C3=O)nn2)C=C[C@@H]1OC(C)=O [Compound 6a] | 39.92 µM | 68 µM | 
12 | CC(=O)OC[C@H]1O[C@H](OCc2cn(C3=CC(=O)c4ccccc4C3=O)nn2)C=C[C@@H]1OC(C)=O [Compound 6b] | 21.18 µM | 48.7 µM | 
13 | CC(=O)OC[C@H]1O[C@H](OC(C)(C)c2cn(C3=CC(=O)c4ccccc4C3=O)nn2)C=C[C@@H]1OC(C)=O [Compound 6c] | 25.73 µM | 58.1 µM | 
14 | CC(=O)OC[C@H]1O[C@H](OCCCc2cn(C3=CC(=O)c4ccccc4C3=O)nn2)C=C[C@@H]1OC(C)=O [Compound 6d] | 38.61 µM | 69.5 µM | 
15 | CC(=O)OCC1OC(n2cc(CNC3=C(Br)C(=O)c4ccccc4C3=O)nn2)C(OC(C)=O)C(OC(C)=O)C1OC(C)=O (centres unmarked) [Compound 7] | 119.10 µM | 334 µM | 
